What all share (type): cell-based
The target in one assay is T1, human TLR8 (Homo sapiens, UniProt Q9NR97).
T1 construct: host or cells: HEK-Blue cells (HEK293-derived reporter line)
T1 sequence (Q9NR97 27-1041): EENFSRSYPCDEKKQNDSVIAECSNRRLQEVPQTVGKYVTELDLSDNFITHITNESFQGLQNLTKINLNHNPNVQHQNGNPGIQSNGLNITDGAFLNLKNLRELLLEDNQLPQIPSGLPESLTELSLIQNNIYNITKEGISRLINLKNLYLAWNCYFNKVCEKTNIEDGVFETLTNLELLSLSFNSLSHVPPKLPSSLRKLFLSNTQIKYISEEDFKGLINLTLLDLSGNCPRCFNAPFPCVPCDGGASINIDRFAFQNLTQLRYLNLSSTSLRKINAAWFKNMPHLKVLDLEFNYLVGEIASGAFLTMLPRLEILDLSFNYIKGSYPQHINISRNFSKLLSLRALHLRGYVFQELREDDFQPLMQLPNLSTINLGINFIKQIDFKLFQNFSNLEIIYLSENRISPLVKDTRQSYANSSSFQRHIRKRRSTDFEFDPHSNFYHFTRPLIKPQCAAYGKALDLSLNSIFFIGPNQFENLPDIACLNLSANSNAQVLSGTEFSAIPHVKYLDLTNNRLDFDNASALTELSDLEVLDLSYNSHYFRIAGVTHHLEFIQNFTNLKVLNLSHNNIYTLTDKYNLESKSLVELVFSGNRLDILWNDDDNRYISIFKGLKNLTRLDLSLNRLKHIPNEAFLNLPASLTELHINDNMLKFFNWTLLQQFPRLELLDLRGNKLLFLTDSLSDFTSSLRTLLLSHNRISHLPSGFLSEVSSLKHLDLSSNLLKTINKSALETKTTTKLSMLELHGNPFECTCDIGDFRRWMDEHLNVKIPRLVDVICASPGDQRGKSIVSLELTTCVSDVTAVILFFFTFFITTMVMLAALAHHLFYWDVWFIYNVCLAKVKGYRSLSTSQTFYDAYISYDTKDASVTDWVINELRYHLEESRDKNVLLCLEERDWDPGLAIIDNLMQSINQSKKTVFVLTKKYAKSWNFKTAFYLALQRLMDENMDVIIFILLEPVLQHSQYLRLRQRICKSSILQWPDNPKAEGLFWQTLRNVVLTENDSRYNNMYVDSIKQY
Nature of the assay: TLR8 inhibition reporter assay (HEK-Blue cells, secreted embryonic alkaline phosphatase reporter). The note with it: HEK-Blue cells overexpressing human TLR8, stimulated with R848 15.9 μM; read-out: TLR 8 IC50. Here is the method:
(§1) TLR7/8/9 Inhibition Reporter Assays
(§2) HEK-Blue™-cells (Invivogen) overexpressing human TLR7, TLR8 or TLR9 receptors were used for screening inhibitors of these receptors using an inducible SLAP (secreted embryonic alkaline phosphatase) reporter gene under the control of the […] minimal promoter fused to five NF-κB and AP-1-binding sites. Briefly, cells are seeded into Greiner 384 well plates (15000 cells per well for TLR7, 20,000 for TLR8 and 25,000 for TLR9) and then treated with test compounds in DMSO to yield a final dose response concentration range of 0.05 nM-50 μM. After a 30 minute compound pre-treatment at room temperature, the cells are then stimulated with a TLR7 ligand (gardiquimod at a final concentration of 7.5 μM), TLR8 ligand (R848 at a final concentration of 15.9 μM) or TLR9 ligand (ODN2006 at a final concentration of 5 nM) to activate NF-κB and AP-1 which induce the production of SLAP. After a 22 hour incubation at 37° C., […], SLAP levels are determined with the addition of HEK-Blue™ Detection reagent (Invivogen), a cell culture medium that allows for detection of SLAP, according to manufacturer's specifications. The percent inhibition is determined as the […] in the HEK-Blue signal present in wells treated with agonist plus DMSO alone compared to wells treated with a known inhibitor.

The next assay deals with T2, human TLR9 (Homo sapiens, UniProt Q9NR96).
T2 construct: host or cells: HEK-Blue cells (HEK293-derived reporter line)
T2 sequence (Q9NR96 26-1032): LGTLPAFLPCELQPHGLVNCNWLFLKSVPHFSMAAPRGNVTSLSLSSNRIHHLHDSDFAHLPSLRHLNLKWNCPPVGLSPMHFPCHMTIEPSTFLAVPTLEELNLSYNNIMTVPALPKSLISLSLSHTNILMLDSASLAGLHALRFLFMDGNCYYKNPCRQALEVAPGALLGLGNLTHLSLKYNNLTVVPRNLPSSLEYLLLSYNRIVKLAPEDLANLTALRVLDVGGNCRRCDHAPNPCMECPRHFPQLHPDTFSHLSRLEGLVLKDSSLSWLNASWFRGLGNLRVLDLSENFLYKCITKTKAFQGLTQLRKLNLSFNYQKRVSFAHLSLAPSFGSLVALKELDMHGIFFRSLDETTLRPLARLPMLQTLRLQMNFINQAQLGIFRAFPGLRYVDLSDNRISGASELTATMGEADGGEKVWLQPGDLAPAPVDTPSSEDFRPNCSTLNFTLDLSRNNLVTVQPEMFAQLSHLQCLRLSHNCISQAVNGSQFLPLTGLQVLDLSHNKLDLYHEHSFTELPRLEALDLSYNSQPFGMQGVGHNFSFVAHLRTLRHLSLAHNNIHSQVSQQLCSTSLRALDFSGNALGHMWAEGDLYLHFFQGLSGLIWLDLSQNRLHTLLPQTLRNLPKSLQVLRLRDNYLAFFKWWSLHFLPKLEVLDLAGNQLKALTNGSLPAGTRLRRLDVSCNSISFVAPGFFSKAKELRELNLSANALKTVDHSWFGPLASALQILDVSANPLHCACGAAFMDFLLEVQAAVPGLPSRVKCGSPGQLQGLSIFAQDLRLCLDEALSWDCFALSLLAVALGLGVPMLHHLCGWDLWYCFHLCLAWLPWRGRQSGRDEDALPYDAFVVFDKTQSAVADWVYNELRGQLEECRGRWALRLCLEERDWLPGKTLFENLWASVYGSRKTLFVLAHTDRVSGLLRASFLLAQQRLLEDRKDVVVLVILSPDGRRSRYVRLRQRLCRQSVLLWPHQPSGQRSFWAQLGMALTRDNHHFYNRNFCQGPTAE
Kind of assay: TLR9 inhibition reporter assay (HEK-Blue cells, secreted embryonic alkaline phosphatase reporter). Put shortly: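 Read-out is SEAP colour from HEK-Blue Detection medium after 22 h at 37 °C, converted to percent inhibition between agonist-plus-DMSO and reference-inhibitor wells. Receptor-overexpressing HEK-Blue cells received compound over 0.05 nM–50 μM for 30 min before agonist: gardiquimod 7.5 μM for TLR7, R848 15.9 μM for TLR8, ODN2006 5 nM for TLR9.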
A general note: Reporter assays use an easily measured gene product as a stand-in for the process of interest.

For the next assay, the target named is T3, human TLR7 (Homo sapiens, UniProt Q9NYK1).
T3 construct: host or cells: HEK-Blue cells (HEK293-derived reporter line)
T3 sequence (Q9NYK1 27-1049): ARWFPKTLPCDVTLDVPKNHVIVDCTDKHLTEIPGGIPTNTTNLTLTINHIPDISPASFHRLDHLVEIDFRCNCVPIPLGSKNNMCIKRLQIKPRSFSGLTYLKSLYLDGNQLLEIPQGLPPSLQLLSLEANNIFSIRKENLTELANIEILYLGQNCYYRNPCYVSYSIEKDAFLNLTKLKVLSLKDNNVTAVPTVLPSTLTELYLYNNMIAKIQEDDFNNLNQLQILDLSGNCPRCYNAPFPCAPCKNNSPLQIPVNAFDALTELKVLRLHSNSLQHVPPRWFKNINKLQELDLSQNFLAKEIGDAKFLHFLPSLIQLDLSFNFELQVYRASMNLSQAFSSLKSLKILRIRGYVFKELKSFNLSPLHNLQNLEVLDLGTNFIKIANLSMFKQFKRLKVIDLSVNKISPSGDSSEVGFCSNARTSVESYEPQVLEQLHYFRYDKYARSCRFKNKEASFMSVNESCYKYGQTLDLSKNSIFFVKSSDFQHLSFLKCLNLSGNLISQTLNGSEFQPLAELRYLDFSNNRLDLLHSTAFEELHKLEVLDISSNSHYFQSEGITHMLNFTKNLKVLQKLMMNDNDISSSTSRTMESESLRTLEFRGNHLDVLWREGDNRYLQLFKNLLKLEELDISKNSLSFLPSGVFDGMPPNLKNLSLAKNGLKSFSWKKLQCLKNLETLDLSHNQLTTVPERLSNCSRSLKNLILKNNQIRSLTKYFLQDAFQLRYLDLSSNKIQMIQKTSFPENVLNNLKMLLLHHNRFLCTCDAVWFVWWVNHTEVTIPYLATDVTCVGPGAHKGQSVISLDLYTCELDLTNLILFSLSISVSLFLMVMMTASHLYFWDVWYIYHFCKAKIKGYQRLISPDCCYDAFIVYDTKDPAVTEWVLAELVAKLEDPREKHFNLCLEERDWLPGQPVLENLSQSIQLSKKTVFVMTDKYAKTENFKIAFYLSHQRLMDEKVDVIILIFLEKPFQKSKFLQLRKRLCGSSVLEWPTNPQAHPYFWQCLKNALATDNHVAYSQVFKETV
Kind of assay: TLR7 inhibition reporter assay (HEK-Blue cells, secreted embryonic alkaline phosphatase reporter). As to conditions: HEK-Blue cells overexpressing human TLR7, stimulated with gardiquimod 7.5 μM; read-out: TLR 7 IC50. Here is the method:
as §1, §2

[1] abbreviates: HEK-Blue cells overexpressing human TLR9, stimulated with ODN2006 5 nM, 22 hour incubation, reporter readout.
Setting [2] is: HEK-Blue cells overexpressing human TLR9, stimulated with ODN2006 5 nM, read-out: TLR 9 IC50.

Where two headings read alike, the source gives them in different places.

In the case of `COc1ccc(-c2nc3c(C)cc(C4CCN(C5CC6CCC(C5)N6CC(C)C)CC4)cc3n2C)cc1OC` (single isomer, unassigned) [Example 18, 2-(3,4-dimethoxyphenyl)-6-(1-(8-isobutyl-8-azabicyclo[3.2.1]octan-3-yl)piperidin-4-yl)-1,4-dimethyl-1H-benzo[d]imidazole], the IC50 – broadly, the point on the concentration scale where inhibition reaches its midpoint – is over 50000 nM on human TLR8, 29 nM against human TLR9 (setting [1]) and 7700 nM on human TLR7.

For `COc1ccc(-c2nc3ccc(C4CCN(C5CCN(C(C)C)CC5)CC4)cc3[nH]2)cc1OC` [Example 2, 2-(3,4-dimethoxyphenyl)-6-(1′-isopropyl-[1,4′-bipiperidin]-4-yl)-1H-benzo[d]imidazole], the IC50 was over 50000 nM at human TLR8, 120 nM on human TLR9 (setting [1]), 123 nM on human TLR9 (setting [2]) and 16000 nM on human TLR7.

In the case of `Cc1cc(-c2cc(F)c(CN3CCC(N(C)C)CC3)c(F)c2)cc2c1nc(-c1ccc(S(C)(=O)=O)cc1)n2C` [Example 392, 1-(4-(1,4-dimethyl-2-(4-(methylsulfonyl)phenyl)-1H-benzo[d]imidazol-6-yl)-2,6-difluorobenzyl)-N,N-dimethylpiperidin-4-amine], the IC50 was determined as 6400 nM at human TLR8, 470 nM against human TLR9 (setting [1]), 466 nM at human TLR9 (setting [2]) and 10200 nM on human TLR7.

Regarding `CC(C)CN1C2CCC1CC(N1CCC(c3cc4c(cc3F)nc(-c3ccc(S(C)(=O)=O)cc3)n4C)CC1)C2` (single isomer, unassigned) [Example 229, 5-fluoro-6-(1-(8-isobutyl-8-azabicyclo[3.2.1]octan-3-yl)piperidin-4-yl)-1-methyl-2-(4-(methylsulfonyl)phenyl)-1H-benzo[d]imidazole], the IC50 is over 50000 nM on human TLR8, 95 nM on human TLR9, 95 nM at human TLR9 (setting [2]) and 43200 nM on human TLR7.

For `Cn1c(-c2ccc(S(C)(=O)=O)cc2)nc2ccc(C3CCN(C4CC5CCC(C4)N5C4COC4)CC3)c(F)c21` (stereo not drawn) [Example 273, 7-fluoro-1-methyl-2-(4-(methylsulfonyl)phenyl)-6-(1-(8-(oxetan-3-yl)-8-azabicyclo[3.2.1]octan-3-yl)piperidin-4-yl)-1H-benzo[d]imidazole], the IC50 at human TLR8 was over 50000 nM; against human TLR9, 300 nM; at human TLR9 (setting [2]), 303 nM; on human TLR7, 7500 nM.

`Cc1cc(C2CCN(C3CC4CCC(C3)N4C3CCC3)CC2)cc2c1nc(-c1ccc(S(C)(=O)=O)c(F)c1)n2C` (single isomer, unassigned) [Example 124, 6-(1-(8-cyclobutyl-8-azabicyclo[3.2.1]octan-3-yl)piperidin-4-yl)-2-(3-fluoro-4-(methylsulfonyl)phenyl)-1,4-dimethyl-1H-benzo[d]imidazole]: the IC50 is over 50000 nM at human TLR8, 580 nM against human TLR9 (setting [1]), 577 nM on human TLR9 (setting [2]) and 3100 nM at human TLR7.

Regarding `Cc1cc(-c2ccc(C3CCN(C4CCOCC4)CC3)cc2)cc2c1nc(-c1ccc(S(C)(=O)=O)cc1)n2C` [Example 364, 1,4-dimethyl-2-(4-(methylsulfonyl)phenyl)-6-(4-(1-(tetrahydro-2H-pyran-4-yl)piperidin-4-yl)phenyl)-1H-benzo[d]imidazole], the IC50 on human TLR8 is over 50000 nM; at human TLR9 (setting [1]), 310 nM; at human TLR7, over 50000 nM.

Take `Cn1c(-c2ccc(S(C)(=O)=O)cc2)nc2cc(F)c(C3CCN(C4CCN(C5CCOCC5)CC4)CC3)cc21` [Example 226, 5-fluoro-1-methyl-2-(4-(methylsulfonyl)phenyl)-6-(1′-(tetrahydro-2H-pyran-4-yl)-[1,4′-bipiperidin]-4-yl)-1H-benzo[d]imidazole]: the IC50 on human TLR8 is over 50000 nM; against human TLR9 it was 900 nM; on human TLR9 (setting [2]) it was 898 nM; at human TLR7, over 50000 nM.

The values above are taken from patent US12492188B2, “1H-benzo[D]imidazole derivatives as TLR9 inhibitors for the treatment of fibrosis” (BRISTOL-MYERS SQUIBB COMPANY, priority 2020, dated 2025).
